Experimental findings from patent US20260138988A1, “Spiropyrrolidine Derived Antiviral Agents” (Enanta Pharmaceuticals, Inc., priority 2021, published 2026) are described below.

One test deals with SARS-CoV-2 3CL-protease (Severe acute respiratory syndrome coronavirus 2, UniProt P0DTD1). Nature of the test: SARS-CoV-2 3C-Like (3CL) Protease Fluorescence Assay (FRET). The following applies: IC50, SARS-CoV-2 3CL-protease 10 nM, test compounds 0-10 μM, duplicate. The test is classed as biochemical.
As usually defined, the IC50 is the concentration that inhibits the measured activity by half. `CC[C@H](NC(=O)C(F)(F)C(F)(F)C(F)(F)F)C(=O)N(C)[C@@H](CC(C)C)C(=O)N1C[C@]2(C[C@H]1C#N)C(=O)Nc1ccccc12` [Example 201] returned an IC50 of less than 100 nM.

Still in this test, the particulars now being: SARS-CoV-2 3CL-protease 10 nM, test compounds 0-10 μM, duplicate, read-out: IC50.
Turning to `C[C@H](NC(=O)C(F)(F)C(F)(F)F)C(=O)N(C)[C@@H](CC(C)(C)C)C(=O)N1C[C@]2(C[C@H]1C#N)C(=O)Nc1c(Cl)cc(Cl)cc12` [Example 173], the IC50 is less than 100 nM.
With `CC(C)C[C@@H](C(=O)N1C[C@]2(C[C@H]1C#N)C(=O)Nc1ccccc12)N(C)C(=O)[C@H](C)NC(=O)CC(F)(F)F` [Example 266], the IC50 is less than 100 nM.
Same read-out and setting: under `C[C@H](NC(=O)c1cccc2cc(Cl)ccc12)C(=O)N(C)[C@@H](CC(C)(C)C)C(=O)N1C[C@]2(C[C@H]1C#N)C(=O)Nc1ccccc12` [Example 284] stands less than 100 nM; under `C[C@H](NC(=O)C12CC(C)(C1)C2)C(=O)N(C)[C@@H](CC(C)(C)C)C(=O)N1C[C@]2(C[C@H]1C#N)C(=O)Nc1ccccc12` [Example 309], less than 100 nM.
The same measure, in the same setting: under `CC(C)(C)C[C@H](NC(=O)[C@H](CC1CC1)NC(=O)C1CCC2(CC1)CC2)C(=O)N1C[C@]2(C[C@H]1C#N)C(=O)Nc1ccccc12` [Example 322] stands less than 100 nM.
Still for that read-out and setting: under `CC(C)(C)C[C@H](NC(=O)[C@H](CC1CC1)NC(=O)C1CC2(CCC2)C1)C(=O)N1C[C@]2(C[C@H]1C#N)C(=O)Nc1ccccc12` [Example 321] stands less than 100 nM; under `C[C@H](NC(=O)C(F)(F)Cc1ccc(F)cc1)C(=O)N(C)[C@@H](CC(C)(C)C)C(=O)N1C[C@]2(C[C@H]1C#N)C(=O)Nc1ccccc12` [Example 243], less than 100 nM.
`C[C@H](NC(=O)c1cccc2cc(F)ccc12)C(=O)N(C)[C@@H](CC(C)(C)C)C(=O)N1C[C@]2(C[C@H]1C#N)C(=O)Nc1ccccc12` [Example 215]: the IC50 is less than 100 nM.
Same read-out and setting: under `CC(C)N1[C@H](C(=O)N(C)[C@@H](CC(C)(C)C)C(=O)N2C[C@]3(C[C@H]2C#N)C(=O)Nc2ccccc23)C[C@@H]2CCC[C@@H]21` [Example 178] stands less than 100 nM.
On to `CC(C)N1c2ccccc2C[C@H]1C(=O)N(C)[C@@H](CC(C)(C)C)C(=O)N1C[C@]2(C[C@H]1C#N)C(=O)Nc1ccccc12` [Example 184], for which the IC50 is less than 100 nM.
On the same count and under the same terms, under `CC(C)C[C@@H](C(=O)N1C[C@]2(C[C@H]1C#N)C(=O)Nc1ccccc12)N(C)C(=O)[C@H](C)NC(=O)C(F)(F)C1CC1` [Example 285] stands less than 100 nM.
Still for that read-out and setting: under `CC(C)C[C@@H](C(=O)N1C[C@]2(C[C@H]1C#N)C(=O)Nc1ccccc12)N(C)C(=O)[C@H](C)NC(=O)C1(F)CCC1` [Example 272] stands less than 100 nM.
`CN(C(=O)[C@@H]1C[C@@H]2CCCC[C@@H]2N1C(=O)C(F)(F)F)[C@@H](CC(C)(C)C)C(=O)N1C[C@]2(C[C@H]1C#N)C(=O)Nc1ccccc12` [Example 177]: the IC50 lay within 100 to 1000 nM.
With `CC(C)C[C@@H](C(=O)N1C[C@]2(C[C@H]1C#N)C(=O)Nc1ccccc12)N(C)C(=O)[C@H](C)NC(=O)C12CC(F)(C1)C2` [Example 278], the IC50 is less than 100 nM.
Same read-out and setting: under `C[C@H](NC(=O)c1cccc2ccc(Cl)cc12)C(=O)N(C)[C@@H](CC(C)(C)C)C(=O)N1C[C@]2(C[C@H]1C#N)C(=O)Nc1ccccc12` [Example 294] stands less than 100 nM; under `C[C@H](NC(=O)CCCC(F)(F)F)C(=O)N(C)[C@@H](CC(C)(C)C)C(=O)N1C[C@]2(C[C@H]1C#N)C(=O)Nc1ccccc12` [Example 264], less than 100 nM; under `CC(C)(C)C[C@H](NC(=O)[C@H](CC1CC1)NC(=O)c1cn(C2CC2)nn1)C(=O)N1C[C@]2(C[C@H]1C#N)C(=O)Nc1ccccc12` [Example 324], less than 100 nM.
With `CC(C)(C)C[C@H](NC(=O)[C@H](CC1CC1)NC(=O)OC1CC1)C(=O)N1C[C@]2(C[C@H]1C#N)C(=O)Nc1ccccc12` [Example 311], the IC50 was less than 100 nM.
Same read-out and setting: under `C[C@H](NC(=O)C(C)(C)C)C(=O)N(C)[C@@H](CC(C)(C)C)C(=O)N1C[C@]2(C[C@H]1C#N)C(=O)Nc1ccccc12` [Example 209] stands less than 100 nM; under `CN(C(=O)[C@H](CC1CC1)NC(=O)C(F)(F)C(F)(F)F)[C@@H](CC1CC1)C(=O)N1C[C@]2(C[C@H]1C#N)C(=O)Nc1ccccc12` [Example 347], less than 100 nM.
In the case of `C[C@H](NC(=O)C(F)(F)C(F)(F)F)C(=O)N(C)[C@@H](CC1CC1)C(=O)N1C[C@]2(C[C@H]1C#N)C(=O)Nc1ccc(Cl)cc12` [Example 170], the IC50 was less than 100 nM.
The same measure, in the same setting: under `CC(C)(C)C[C@H](NC(=O)[C@@H](NC(=O)C1CCC1)c1ccccc1)C(=O)N1C[C@]2(C[C@H]1C#N)C(=O)Nc1ccccc12` [Example 246] stands less than 100 nM.
Still for that read-out and setting: under `C[C@@H]1NC(=O)CCCCCc2ccc3c(c2)[C@@]2(C[C@@H](C#N)N(C2)C(=O)[C@H](CC(C)(C)C)NC1=O)C(=O)N3` [Example 375] stands more than 1000 nM.
Still for that read-out and setting: under `C[C@H](NC(=O)c1ccc(C(F)(F)F)cc1)C(=O)N(C)[C@@H](CC(C)(C)C)C(=O)N1C[C@]2(C[C@H]1C#N)C(=O)Nc1ccccc12` [Example 286] stands less than 100 nM.
On to `CC(=O)Nc1cccn([C@H](CC(C)C)C(=O)N2C[C@]3(C[C@H]2C#N)C(=O)Nc2ccccc23)c1=O` [Example 358], for which the IC50 was less than 100 nM.
For the compound `C[C@H](NC(=O)OCc1ccccc1)C(=O)N[C@@H](CC(C)(C)C)C(=O)N1C[C@]2(C[C@H]1C#N)C(=O)Nc1ccccc12` [Example 227], the IC50 was less than 100 nM.
On the same count and under the same terms, under `C[C@@H]1NC(=O)CCCCc2ccc3c(c2)[C@@]2(C[C@@H](C#N)N(C2)C(=O)[C@H](CC(C)(C)C)N(C)C1=O)C(=O)N3` [Example 377] stands less than 100 nM.
On the same count and under the same terms, under `C[C@H](NC(=O)C(F)(F)C(F)(F)F)C(=O)N(C)[C@@H](Cc1ccccc1)C(=O)N1C[C@]2(C[C@H]1C#N)C(=O)Nc1ccccc12` [Example 268] stands less than 100 nM.
For the compound `CN(C(=O)[C@@H]1C[C@@H](c2ccccc2)CN1)[C@@H](CC(C)(C)C)C(=O)N1C[C@]2(C[C@H]1C#N)C(=O)Nc1ccccc12` [Example 232], the IC50 is less than 100 nM.
As for `C[C@H](NC(c1ccc(F)cc1)C(F)(F)F)C(=O)N(C)[C@@H](CC(C)(C)C)C(=O)N1C[C@]2(C[C@H]1C#N)C(=O)Nc1ccccc12` (some centres unmarked) [Example 302], the IC50 is less than 100 nM.
`CC(C)(C)C[C@H](NC(=O)[C@H](CC1CC1)NC(=O)C12CC(C)(C1)C2)C(=O)N1C[C@]2(C[C@H]1C#N)C(=O)Nc1ccccc12` [Example 317]: the IC50 is less than 100 nM.
Turning to `CC(C)C[C@@H](C(=O)N1C[C@]2(C[C@H]1C#N)C(=O)Nc1ccccc12)n1cccc(NC(=O)OC(C)(C)C)c1=O` [Example 354], the IC50 fell in the range of 100 to 1000 nM.
As to `C[C@H](NC(=O)c1ccccc1-c1ccccc1)C(=O)N(C)[C@@H](CC(C)(C)C)C(=O)N1C[C@]2(C[C@H]1C#N)C(=O)Nc1ccccc12` [Example 282], the IC50 was less than 100 nM.
In the case of `CC(C)C[C@@H](C(=O)N1C[C@]2(C[C@H]1C#N)C(=O)Nc1ccccc12)N(C)C(=O)[C@H](C)NC(=O)c1ccc(C(F)(F)F)cc1C(F)(F)F` [Example 291], the IC50 is less than 100 nM.
Same read-out and setting: under `CC(C)CC(NC(=O)c1cnn(CC(F)(F)F)c1)C(=O)N1CC[C@H](c2ccccc2)[C@H]1C(=O)N1C[C@]2(C[C@H]1C#N)C(=O)Nc1ccccc12` (some centres unmarked) [Example 346] stands less than 100 nM.
`C[C@H](NC(=O)C(F)(F)F)C(=O)N(C)[C@@H](C)C(=O)N1C[C@]2(C[C@H]1C#N)C(=O)Nc1ccccc12` [Example 204]: the IC50 was less than 100 nM.
Same read-out and setting: under `COCCC(=O)N[C@@H](C)C(=O)N(C)[C@@H](CC(C)(C)C)C(=O)N1C[C@]2(C[C@H]1C#N)C(=O)Nc1ccccc12` [Example 262] stands less than 100 nM; under `C[C@H](NC(=O)c1cc(F)c2nn(C3CC3)cc2c1)C(=O)N(C)[C@@H](CC(C)(C)C)C(=O)N1C[C@]2(C[C@H]1C#N)C(=O)Nc1ccccc12` [Example 220], less than 100 nM.
The same measure, in the same setting: under `C[C@H](NC(=O)c1ccc(OC2CC2)c(OC2CC2)c1)C(=O)N(C)[C@@H](CC(C)(C)C)C(=O)N1C[C@]2(C[C@H]1C#N)C(=O)Nc1ccccc12` [Example 216] stands less than 100 nM; under `CC(C)(C)C[C@H](NC(=O)[C@H](CC1CC1)NC(=O)OC1CC1)C(=O)N1C[C@]2(C[C@H]1C#N)C(=O)Nc1ccccc12` [Example 331], 100 to 1000 nM; under `CC(C)(C)C[C@H](NC(=O)[C@@H](NC(=O)C(F)(F)F)c1ccccc1)C(=O)N1C[C@]2(C[C@H]1C#N)C(=O)Nc1ccccc12` [Example 245], less than 100 nM.
Same read-out and setting: under `CC(C)C[C@@H](C(=O)N1C[C@]2(C[C@H]1C#N)C(=O)Nc1ccccc12)N(C)C(=O)[C@H](C)NC(=O)c1cc2[nH]ccc2cc1F` [Example 186] stands less than 100 nM; under `C[C@H](NC(=O)C(F)(F)F)C(=O)N[C@@H](CC(C)(C)C)C(=O)N1C[C@]2(C[C@H]1C#N)C(=O)Nc1ccccc12` [Example 222], less than 100 nM; under `C[C@H](NC(=O)C1(F)C(F)(F)C1(F)F)C(=O)N(C)[C@@H](CC1CC1)C(=O)N1C[C@]2(C[C@H]1C#N)C(=O)Nc1ccccc12` [Example 195], less than 100 nM.
With `CC(C)(C)C[C@H](NC(=O)[C@H](CC1CC1)NC(=O)c1ccc(C(C)(C)C)cc1)C(=O)N1C[C@]2(C[C@H]1C#N)C(=O)Nc1ccccc12` [Example 304], the IC50 was less than 100 nM.
In the case of `CCN(C(=O)[C@H](C)NC(=O)C(F)(F)C(F)(F)F)[C@@H](CC(C)C)C(=O)N1C[C@]2(C[C@H]1C#N)C(=O)Nc1ccccc12` [Example 366], the IC50 was less than 100 nM.
Still for that read-out and setting: under `C[C@@H]1NC(=O)CCCCCCCc2ccc3c(c2)[C@@]2(C[C@@H](C#N)N(C2)C(=O)[C@H](CC(C)(C)C)NC1=O)C(=O)N3` [Example 376] stands more than 1000 nM; under `CC(C)C[C@@H](C(=O)N1C[C@]2(C[C@H]1C#N)C(=O)Nc1ccccc12)N(C)C(=O)[C@H](C)NC(=O)c1ccc(F)cc1C(F)(F)F` [Example 145], less than 100 nM.
Still for that read-out and setting: under `C[C@H](NC(=O)c1cc2ccccc2n1-c1ccccc1)C(=O)N(C)[C@@H](CC(C)(C)C)C(=O)N1C[C@]2(C[C@H]1C#N)C(=O)Nc1ccccc12` [Example 281] stands less than 100 nM.
